Assay [1] has as its system NF-kB target proteins iNOS, COX2, NLRP3, and IL-1β. Description: LPS-induced NF-kB target protein expression in BMDCs (western blot). The conditions noted are these: BMDCs, 10, 25, 50 nM, LPS (500 ng/ml), FIG. 1C. The assay is classed as cell-based. The procedure: FIG. 1A depicts plots of relative NF-κB luciferase activity (RLU) for compound 22 and compound 1 (also referred to as “CLM-001”) assayed at 8-point concentrations (10 μM, 5 μM, […], 1.25 μM, 0.63 μM, 0.31 μM, 0.16 μM, […], and 0 μM). FIG. 1B depicts plots of the inhibitory concentrations (IC50) for compounds 22 (CLM-022) and 1 (CLM-001).
LPS-induced NF-kB target protein expression: Bone marrow-derived dendritic cells (BMDCs) were pre-treated with compound 22 or compound 1 at three concentrations (10 nM, 25 nM, 50 nM) for an hour and then treated overnight with LPS (500 ng/ml). The next day, the cells were subjected to western blotting for iNOS, COX2, NLRP3, and IL-1β.
In general terms: In western blotting, separated proteins are transferred to a membrane and probed.

Assay [2] concerns NLRP3 inflammasome. Nature of the assay: ASC complex formation in THP-1 cells (western blot), LPS+Nigericin. It is filed as cell-based, human. The conditions noted are these: THP-1, 50 nM and 100 nM, FIG. 3A. The procedure: This example illustrates a study of the anti-inflammatory potential of an exemplary celastrol derivative of the present disclosure (compound 22) using an NLRP3 inflammasome assay in THP-1, a human monocytic cell line, activated with LPS+Nigericin in the presence of compound 22 or the known NLRP3 inhibitor compound, MCC950 (CAS 256373-96-3), as a benchmark molecule.
Human THP-1 cells were treated with LPS+Nigericin as shown previously (FIG. 2) where increasing dose of compound 1, compound 22, or MCC950 were added as indicated.

Assay [3] concerns NLRP3 inflammasome. Description: Detection of ASC complex and caspase-1 activity in THP-1 cells by Amnis imaging flow cytometry. The assay is classed as cell-based, human. The conditions noted are these: THP-1, LPS+Nigericin. On the procedure:
FIG. 3A shown images of western blot analysis of THP1 cells treated with LPS, and compound 1 (CLM-001) or compound 22, followed by Nigericin for NLRP3 inflammasome activation. The inflammasome ASC complex in the control cells (LPS+Nigericin) was compared with the treatment of compound 1 (CLM-001) (50 nM, 100 nM), compound 22 (CLM-022) (50 nM, 100 nM), and MCC950 (100 nM, 200 nM). FLICA (green) represents active caspase-1, ASC (red) complex is shown as a red speckle near the nucleus membrane, and DAPI stain for nucleus (blue) captured in the AMNIS analysis. FIG. 3B depicts the cell numbers stained as ASC+ (red) and FLICA+ (green) in the AMNIS were counted in order to compare the level of NLRP3 inflammasome activity in the cells treated as indicated (left). The ASC+ and FLICA+ cells were also plotted as a percentage of total cell count (right). […]
Amnis Imaging flow cytometry (Luminex Co.) is a high-throughput, single-cell, fluorescence-based image analysis method which can detect inflammasome by acquiring images of cellular distribution of ASC complex and active caspase-1. […] The treated cells were subjected to ASC staining and visualization of active caspase-1 using FLICA, a caspase-1 substrate exerting fluorescence upon cleavage. Finally, the ASC+/FLICA+ cells were counted as THP-1 cells with active NLRP3 inflammasome complex.
(In flow cytometry, cells or beads pass a laser one at a time.)

Assay [4] relates to LPS-induced acute inflammation. Description: LPS-induced septic shock mouse model, cytokine expression in serum (ELISA) and colonic mucosa (qPCR). It is filed as in vivo. On the procedure: FIG. 4A, and FIG. 4B depict results showing that compound 22 (CLM-022) decreased the production of pro-inflammatory cytokines in the LPS-induced septic shock mouse model as described in Example 17. Compound 1 (CLM-001) and compound 22 (CLM-022) (1 mg/kg) injected intraperitoneally 1 hour prior to septic shock induction by administering sublethal dose of LPS (25 mg/kg, i.p.), mice were sacrificed 4 hours post LPS injection, and subjected to measurement of inflammatory cytokine expression. FIG. 4A depicts plot of data showing that the level of TNF-α decreased in the serum of compound 1 and compound 22 treated mice.
This example illustrates a study of the inhibitory function of an exemplary celastrol derivative of the present disclosure (compound 22) against LPS-induced acute inflammation in vivo, we set up LPS-induced septic shock mouse model (Yu et al., 2017) and detected the expression levels of inflammatory cytokines in colon.
Mice (n=3 per group) were administered intraperitoneally (i.p.) with control vehicle, compound 1 (1 mg/kg), or compound 22 (1 mg/kg). After 1 hour, mice were administered by i.p. injection a sublethal dose of LPS (25 mg/kg). Four hours later, the mice were subjected to blood collection and harvesting colonic mucosa by scraping colon. Cytokine expression was measured by conducting ELISA (Cat #900-T54, PeproTech) for TNF-α on blood serum samples and qPCR for the cytokines, IL-1 (TaqMan, Mm00434228), IL-6 (TaqMan, Mm00446190), TNF-α (TaqMan, 00443258), iNOS (TaqMan, 00440502), on colonic mucosa samples.

Assay [5] has as its system NLRP3 inflammasome. Nature of the assay: IL-1β secretion in THP-1 macrophages, LPS + Nigericin. The assay is classed as cell-based. The conditions noted are these: human THP-1 macrophages, FIG. 5C. On the procedure:
This example illustrates a comparative study of CLM-022 and MCC950 in inhibiting NLRP3 inflammasome activity in mouse and human macrophages.
To confirm the inhibitory effect of CLM-022 in human macrophages, THP-1 cells, a human leukemia monocytic cell line, were differentiated into macrophages using phorbol 12-myristate-13-acetate (PMA, 100 ng/ml) treatment for one day. The THP-1 macrophages were then treated with LPS (100 ng/ml) for 3 hours to induce the expression of inflammatory genes. Subsequently, the THP-1 cells were treated with CLM-022 or MCC950 in a dose range of 0-10 μM for 30 minutes. Then, to fully activate NLRP3-dependent inflammasome activity, Nigericin (10 μM) was added to the THP-1 cells for an additional 60 min.

We go through one molecule from US20260356879A1, “CELASTROL DERIVATIVES” (Celloram Inc., priority 2022, published 2026).

pIC50: −log10 of the molar value. Entries after “also recorded” stand apart in the source; their conditions may differ.

What is called pIC50 is −log10 of the IC50, conventionally taken in molar units. Regarding `CC1=C(O)C(=O)C=C2C1=CC=C1[C@@]2(C)CC[C@@]2(C)[C@@H]3C[C@](C)(N(C)C(=O)C(=O)N(C)C)CC[C@]3(C)CC[C@]12C` [Compound 22, N′-[(2R,4aS,6aR,6aS,14aS,14bR)-10-hydroxy-2,4a,6a,6a,9,14a-hexamethyl-11-oxo-1,3,4,5,6,13,14,14b-octahydropicen-2-yl]-N,N,N′-trimethyl-oxamide], the “expression of LPS-induced NF-kB target proteins iNOS, COX2, NLRP3, and IL-1β” value in assay [1] is “markedly inhibited expression of the LPS-induced NF-kB target proteins iNOS, COX2, NLRP3, and IL-1β in a dose-dependent fashion”. Also, the ASC complex formation entry in assay [2] is “strongly inhibited this ASC complex formation with an inhibitory capacity that was stronger than that observed for celastrol (compound 1) and MCC950”. The minimal effective concentration in assay [3] (Homo sapiens, FIG. 3C, read-out: concentration at which a strong inhibitory function was observed (as low as)) is at most 0.025 µM. In addition, the “inhibition of cellular ASC+FLICA+ specks / inflammasome complex” value in assay [3] (FIG. 3B) is “strong inhibitory effect; also recorded: inhibited NLRP3 inflammasome activity in THP1 and the cellular inflammasome complex as visualized by Amnis analysis”. Also, the “level of TNF-α in serum” value in assay [4] (1 mg/kg i.p. 1 hour before LPS (25 mg/kg, i.p.), 4 hours post LPS, ELISA, FIG. 4A) is “decreased”. In addition, the “gene expression of IL-1β, IL-6, TNF-α, and iNOS in the colon” value in assay [4] (1 mg/kg i.p. 1 hour before LPS (25 mg/kg, i.p.), 4 hours post LPS, qPCR, FIG. 4B) is recorded as “markedly inhibited”. Moreover, the “inhibition of LPS-induced acute inflammation responses (IL-1, IL-6, TNF-α, iNOS in blood serum and colon mucosa)” value in assay [4] (1 mg/kg i.p., LPS 25 mg/kg i.p., FIGS. 4A and 4B) is “efficiently suppressed expression of an inflammatory mediator and the inflammatory cytokines including IL-1, IL-6, TNF-α, and INOS in the blood serum and colon mucosa to levels comparable to or lower than the levels observed in the group administered celastrol (Compound 1)”. Further, in assay [5] (LPS (100 ng/ml) + Nigericin (10 μM), 0-10 μM, read-out: IC50 for inhibition of IL-1β secretion), the negative logarithm of the IC50 (pIC50) is 6.80. For the same molecule, the “inhibition of IL-1β secretion” value in assay [5] (LPS + Nigericin) is listed as “robustly inhibited IL-1β secretion”.
